According to PubChem BioAssay (NCI):
Values joined by “and” are separate entries in the source; they are usually repeats but may differ in a detail not shown here. Identical values can stand only once.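 Exposure lasted 48 hours, with cells grown in 96-well plates and compounds tested at five concentrations. GI50: concentration for 50% inhibition of growth. The concentration for full growth arrest is given as TGI.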

Experiments:
Assay in all cases: growth of human tumour cells (NCI), 48 h
786-0 renal = tested on: 786-0 renal
A498 renal = tested on: A498 renal
A549 NSCLC = tested on: A549 NSCLC
ACHN renal = tested on: ACHN renal
BT-549 breast = tested on: BT-549 breast
CAKI-1 renal = tested on: CAKI-1 renal
CCRF-CEM leukemia = tested on: CCRF-CEM leukemia
COLO 205 colon = tested on: COLO 205 colon
DU-145 prostate = tested on: DU-145 prostate
EKVX NSCLC = tested on: EKVX NSCLC
HCC-2998 colon = tested on: HCC-2998 colon
HCT-116 colon = tested on: HCT-116 colon
HCT-15 colon = tested on: HCT-15 colon
HL-60(TB) leukemia = tested on: HL-60(TB) leukemia
HOP-62 NSCLC = tested on: HOP-62 NSCLC
HOP-92 NSCLC = tested on: HOP-92 NSCLC
HS 578T breast = tested on: HS 578T breast
HT29 colon = tested on: HT29 colon
IGROV1 ovarian = tested on: IGROV1 ovarian
K-562 leukemia = tested on: K-562 leukemia
KM12 colon = tested on: KM12 colon
LOX IMVI melanoma = tested on: LOX IMVI melanoma
M14 melanoma = tested on: M14 melanoma
MALME-3M melanoma = tested on: MALME-3M melanoma
MCF7 breast = tested on: MCF7 breast
MDA-MB-231 breast = tested on: MDA-MB-231 breast
MDA-MB-435 = tested on: MDA-MB-435
MDA-MB-468 breast = tested on: MDA-MB-468 breast
MOLT-4 leukemia = tested on: MOLT-4 leukemia
NCI-H226 lung = tested on: NCI-H226 lung
NCI-H23 lung = tested on: NCI-H23 lung
NCI-H460 lung = tested on: NCI-H460 lung
NCI-H522 lung = tested on: NCI-H522 lung
OVCAR-3 ovarian = tested on: OVCAR-3 ovarian
OVCAR-4 ovarian = tested on: OVCAR-4 ovarian
OVCAR-5 ovarian = tested on: OVCAR-5 ovarian
OVCAR-8 ovarian = tested on: OVCAR-8 ovarian
PC-3 prostate = tested on: PC-3 prostate
RPMI-8226 leukemia = tested on: RPMI-8226 leukemia
RXF 393 renal = tested on: RXF 393 renal
SF-268 CNS = tested on: SF-268 CNS
SF-295 CNS = tested on: SF-295 CNS
SF-539 CNS = tested on: SF-539 CNS
SK-MEL-2 melanoma = tested on: SK-MEL-2 melanoma
SK-MEL-28 melanoma = tested on: SK-MEL-28 melanoma
SK-MEL-5 melanoma = tested on: SK-MEL-5 melanoma
SK-OV-3 ovarian = tested on: SK-OV-3 ovarian
SN12C renal = tested on: SN12C renal
SNB-19 CNS = tested on: SNB-19 CNS
SNB-75 CNS = tested on: SNB-75 CNS
SR leukemia = tested on: SR leukemia
SW-620 colon = tested on: SW-620 colon
T-47D breast = tested on: T-47D breast
TK-10 renal = tested on: TK-10 renal
U251 CNS = tested on: U251 CNS
UACC-257 melanoma = tested on: UACC-257 melanoma
UACC-62 melanoma = tested on: UACC-62 melanoma
UO-31 renal = tested on: UO-31 renal

## CC(=O)Oc1ccccc1C(=O)[Se]C(=NC1CCCCC1)NC1CCCCC1
786-0 renal
  GI50: 1760 nM
  TGI: 3160 nM
A498 renal
  GI50: 2310 nM
  TGI: 6730 nM
A549 NSCLC
  GI50: 3010 nM
  TGI: 10600 nM
ACHN renal
  GI50: 1790 nM
  TGI: 3270 nM
BT-549 breast
  GI50: 1640 nM
  TGI: 3070 nM
CAKI-1 renal
  GI50: 1690 nM
  TGI: 3110 nM
CCRF-CEM leukemia
  GI50: 2030 nM
  TGI: 5050 nM
COLO 205 colon
  GI50: 1950 nM
  TGI: 4360 nM
DU-145 prostate
  GI50: 1790 nM
  TGI: 3280 nM
EKVX NSCLC
  GI50: 1650 nM
  TGI: 3060 nM
HCC-2998 colon
  GI50: 1720 nM
  TGI: 3120 nM
HCT-116 colon
  GI50: 1900 nM
  TGI: 3730 nM
HCT-15 colon
  GI50: 1780 nM
  TGI: 3560 nM
HL-60(TB) leukemia
  GI50: 1950 nM
  TGI: 4710 nM
HOP-62 NSCLC
  GI50: 1700 nM
  TGI: 3360 nM
HOP-92 NSCLC
  GI50: 1810 nM
  TGI: 4230 nM
HS 578T breast
  GI50: 2050 nM
  TGI: 5370 nM
HT29 colon
  GI50: 2190 nM
  TGI: 5480 nM
IGROV1 ovarian
  GI50: 1760 nM
  TGI: 3170 nM
K-562 leukemia
  GI50: 2090 nM
  TGI: 5210 nM
KM12 colon
  GI50: 1830 nM
  TGI: 3390 nM
LOX IMVI melanoma
  GI50: 1650 nM
  TGI: 3100 nM
M14 melanoma
  GI50: 1690 nM
  TGI: 3190 nM
MALME-3M melanoma
  GI50: 1730 nM
  TGI: 3200 nM
MCF7 breast
  GI50: 1820 nM
  TGI: 3400 nM
MDA-MB-231 breast
  GI50: 1850 nM
  TGI: 3580 nM
MDA-MB-435
  GI50: 1790 nM
  TGI: 3330 nM
MDA-MB-468 breast
  GI50: 1750 nM
  TGI: 3320 nM
MOLT-4 leukemia
  GI50: 2390 nM
  TGI: 5560 nM
NCI-H226 lung
  GI50: 1600 nM
  TGI: 3210 nM
NCI-H23 lung
  GI50: 1660 nM
  TGI: 3200 nM
NCI-H460 lung
  GI50: 1980 nM
  TGI: 4370 nM
NCI-H522 lung
  GI50: 1560 nM
  TGI: 3030 nM
OVCAR-3 ovarian
  GI50: 1840 nM
  TGI: 3390 nM
OVCAR-4 ovarian
  GI50: 1740 nM
  TGI: 3300 nM
OVCAR-5 ovarian
  GI50: 1690 nM
  TGI: 3230 nM
OVCAR-8 ovarian
  GI50: 1720 nM
  TGI: 3140 nM
PC-3 prostate
  GI50: 1830 nM
  TGI: 3620 nM
RPMI-8226 leukemia
  GI50: 2160 nM
  TGI: 5390 nM
RXF 393 renal
  GI50: 1670 nM
  TGI: 3040 nM
SF-268 CNS
  GI50: 2330 nM
  TGI: 5680 nM
SF-295 CNS
  GI50: 1610 nM
  TGI: 3160 nM
SF-539 CNS
  GI50: 1670 nM
  TGI: 3040 nM
SK-MEL-2 melanoma
  GI50: 1640 nM
  TGI: 3150 nM
SK-MEL-28 melanoma
  GI50: 1760 nM
  TGI: 3270 nM
SK-MEL-5 melanoma
  GI50: 1630 nM
  TGI: 3060 nM
SK-OV-3 ovarian
  GI50: 1690 nM
  TGI: 3180 nM
SN12C renal
  GI50: 1730 nM
  TGI: 3120 nM
SNB-19 CNS
  GI50: 1670 nM
  TGI: 3100 nM
SNB-75 CNS
  GI50: 1370 nM
  TGI: 2780 nM
SR leukemia
  GI50: 1960 nM
  TGI: 4710 nM
SW-620 colon
  GI50: 1790 nM
  TGI: 3370 nM
T-47D breast
  GI50: 2000 nM
  TGI: 5170 nM
TK-10 renal
  GI50: 1640 nM
  TGI: 3030 nM
U251 CNS
  GI50: 1720 nM
  TGI: 3360 nM
UACC-257 melanoma
  GI50: 1680 nM
  TGI: 3150 nM
UACC-62 melanoma
  GI50: 1670 nM
  TGI: 3290 nM
UO-31 renal
  GI50: 1620 nM
  TGI: 2970 nM

## Cn1c([N+](=O)[O-])cnc1/C=C1\Oc2ccc(Br)cc2C1=O
MDA-MB-468 breast
  GI50: 1590 nM
  TGI: 4600 nM

## CO[C@@H](C)Cn1c(=O)n(C)c2cnc3ccc(-c4cncc(C(C)(C)O)c4)cc3c21
MDA-MB-468 breast
  GI50: 132 nM and 60.1 nM
  TGI: 661 nM and 472 nM
